Test results from article PMC3097170 (The Journal of pharmacology and experimental therapeutics, 2011).
Where “and” joins values, the source holds several entries; their conditions need not be identical. Equal values may be shown once. Where a name gives a salt, the structure may show the parent alone. Read-outs that look alike come from different tables or passages of the source.

Experiments:
DOR/MOR heteromers = DOR/MOR heteromers (Mus musculus, UniProt P32300+P42866); format: cell-based, murine
DOR/MOR heteromers, sequence (P42866 whole entry): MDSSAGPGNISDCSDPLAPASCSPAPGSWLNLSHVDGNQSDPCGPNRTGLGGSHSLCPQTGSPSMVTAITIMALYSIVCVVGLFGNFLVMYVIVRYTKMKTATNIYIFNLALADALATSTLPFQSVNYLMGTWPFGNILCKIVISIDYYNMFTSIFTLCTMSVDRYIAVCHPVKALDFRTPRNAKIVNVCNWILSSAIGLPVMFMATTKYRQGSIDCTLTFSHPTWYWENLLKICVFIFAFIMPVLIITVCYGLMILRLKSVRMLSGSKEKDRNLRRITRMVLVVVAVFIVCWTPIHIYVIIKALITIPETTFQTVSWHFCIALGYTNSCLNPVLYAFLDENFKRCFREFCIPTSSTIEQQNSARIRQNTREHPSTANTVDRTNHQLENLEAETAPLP
DOR/MOR heteromers, sequence (P32300 whole entry): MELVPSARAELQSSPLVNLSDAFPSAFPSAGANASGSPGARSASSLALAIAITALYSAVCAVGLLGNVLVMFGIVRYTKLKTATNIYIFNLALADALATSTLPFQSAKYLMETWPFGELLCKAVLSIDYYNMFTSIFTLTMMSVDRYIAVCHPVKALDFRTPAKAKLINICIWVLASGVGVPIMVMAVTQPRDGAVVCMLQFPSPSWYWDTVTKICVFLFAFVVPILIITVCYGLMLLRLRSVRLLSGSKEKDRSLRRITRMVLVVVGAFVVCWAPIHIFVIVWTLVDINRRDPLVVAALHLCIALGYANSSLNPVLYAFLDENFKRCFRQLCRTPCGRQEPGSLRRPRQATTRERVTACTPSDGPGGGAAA

MOR homomers = MOR homomers (Mus musculus, UniProt P42866); format: cell-based, murine; conditions: DOR/MOR co-expressing cells
MOR homomers, sequence (P42866 whole entry): as the sequence (P42866 whole entry) above

DOR homomers = DOR homomers (Mus musculus, UniProt P32300); format: cell-based, murine
DOR homomers, sequence (P32300 whole entry): as the sequence (P32300 whole entry) above

DOR [1] = molecular target: T1, DOR (Mus musculus, UniProt P32300)
T1 sequence (P32300 whole entry): as above

MOR [2] = molecular target: T2, MOR (Mus musculus, UniProt P42866)
T2 sequence (P42866 whole entry): as the sequence (P42866 whole entry) above

DOR/MOR [3] = molecular target: T3, DOR/MOR (Mus musculus, UniProt P32300+P42866)
T3 sequence (P42866 whole entry): as above
T3 sequence (P32300 whole entry): as the sequence (P32300 whole entry) above

MOR [4] = molecular target: T2, MOR; remark: listed apart in the source
DOR [5] = molecular target: T1, DOR; remark: listed apart in the source
DOR [6] = conditions: cited from earlier work
MOR [7] = conditions: cited from earlier work
DOR [8] = molecular target: T1, DOR; experiment: cell-based; conditions: Log IC50
DOR/MOR [9] = molecular target: T3, DOR/MOR; experiment: cell-based

## C[C@@H](NC(=O)[C@@H](N)Cc1ccc(O)cc1)C(=O)NCC(=O)N(C)[C@@H](Cc1ccccc1)C(=O)NCCO [DAMGO, [D-Ala2, NMe-Phe4, Gly-ol5]-enkephalin]
DOR/MOR heteromers
  agonist-induced endocytosis of DOR/MOR heteromers: promoted endocytosis
MOR homomers; 1 μM, 30 minutes
  agonist-induced endocytosis of MOR homomers: promoted endocytosis
DOR homomers
  agonist-induced endocytosis of DOR homomers: but not DOR homomers
DOR [1]
  Emax (RFU): 582 ± 55 RFU
MOR [2]
  Emax (RFU): 735 ± 51 RFU
DOR/MOR [3]
  Emax (RFU): 956 ± 56 RFU
MOR [4]; 1 μM agonist, 30 minutes, cells expressing MOR alone
  agonist-induced endocytosis of MOR: endocytosed
DOR [5]
  agonist-induced endocytosis of DOR: not endocytosed

## Oc1ccc2c3c1O[C@H]1c4oc5ccccc5c4C[C@@]4(O)[C@@H](C2)N(CC2CC2)CC[C@]314 [NTB, naltriben mesylate]
DOR/MOR heteromers
  inhibition of methadone- and DAMGO-induced endocytosis of DOR/MOR heteromers: significantly inhibited
MOR homomers; NTB 0.05 μM to 1 μM, 20 minutes
  inhibition of methadone- and DAMGO-induced endocytosis of MOR homomers: inhibited by the highest concentration
DOR [1]
  % of maximal inhibition: 87 ± 2% and 87 ± 12%
  block of DPDPE signaling: effectively blocked signaling
MOR [2]
  inhibition of DAMGO-mediated signaling: 52 ± 4%
  inhibition of methadone-mediated signaling: 63 ± 10%
DOR/MOR [3]
  % of maximal inhibition: 34 ±7 ^### % and 31 ± 5 %
  block of DPDPE signaling: effectively blocked signaling
MOR [4]
  inhibition of MOR endocytosis in cells expressing only MOR: did not block endocytosis
DOR [5]
  inhibition of DOR endocytosis in response to DPDPE: did block endocytosis
DOR [6]; DOR over MOR, ref Raynor et al., 1994, Kim et al., 2001
  fold higher affinity for DOR over MOR: > 100 fold
DOR [6]; read-out: Ki for DOR, ref Raynor et al., 1994, Kim et al., 2001
  Ki: 0.013 nM
MOR [7]; read-out: Ki for MOR, ref Raynor et al., 1994, Kim et al., 2001
  Ki: 12 nM
DOR [8]
  IC50: 158 nM and 126 nM
DOR/MOR [9]
  IC50: 251 nM

## Oc1ccc2c3c1O[C@H]1c4[nH]c5ccccc5c4C[C@@]4(O)[C@@H](C2)N(CC2CC2)CC[C@]314 [NTI, Naltrindole hydrochloride]
DOR/MOR heteromers
  inhibition of methadone- and DAMGO-induced endocytosis of DOR/MOR heteromers: significantly and selectively inhibited
DOR [1]
  % of maximal inhibition: 81 ± 3% and 94 ± 1%
DOR/MOR [3]
  % of maximal inhibition: 79 ± 6% and 48 ± 6%
  Log IC50: −6.9 ± 0.1
DOR [6]; read-out: Ki for DOR, reference not given
  Ki: 0.02 nM
MOR [7]; read-out: Ki for MOR, reference not given
  Ki: 64 nM
DOR [8]
  IC50: 63.1 nM and 251 nM
DOR/MOR [9]
  IC50: 126 nM
